{"source": "patent US20250034113A1", "about": "“SOLID STATE FORMS OF TAVAPADON AND PROCESSES FOR PREPARATION THEREOF” (TEVA CZECH INDUSTRIES S.R.O, priority 2021, published 2025)", "test": "Stability test of crystalline forms at different relative humidities and temperatures, XRPD analysis", "type": "physicochemical", "details": "for time stable after exposure to different relative humidity conditions at different temperatures: 25° C./60% RH and 40° C./75% RH, by XRPD; for XRPD analysis after storage: 2 month; for stability to conditions of relative humidity at elevated temperatures: general statement", "procedure": "Powder X-ray Diffraction was performed on an X-Ray powder diffractometer PanAlytical X'pert Pro; CuKα radiation (λ=1.54187 Å); X'Celerator detector with active length 2.122 degrees 2-theta; laboratory temperature 25±3° C.; zero background sample holders. Prior to analysis, the samples were gently ground using a mortar and pestle to obtain a fine powder. The ground sample was adjusted into a cavity of the sample holder and the surface of the sample was smoothed using a cover glass.\n• Scan range: 3-40 degrees 2-theta • Scan mode: continuous • Step size: 0.0167 degrees • […] s • Sample spin: 60 rpm • Sample holder: zero background silicon plate\nSamples of Tavapadon form 1 and Form H1 were subjected to conditions of different relative humidities at different temperatures. XRPD analysis was performed on the samples after 2 month.\nSamples of Tavapadon Form H1 were subjected to conditions of different relative humidities at different temperatures, over a time period of 6 months. XRPD analysis was performed on the samples after 2, 4 and 6 months.\nSamples of Tavapadon Form R1 were subjected to conditions of different relative humidities at different temperatures, over a time period of 6 months. XRPD analysis was performed on the samples after 2, 4 and 6 months.", "data": [{"smiles": "Cc1cc(Oc2ncccc2C(F)(F)F)ccc1-c1c(C)c(=O)[nH]c(=O)n1C", "note": "(racemic) [Tavapadon Form R1, 1,5-dimethyl-6-(2-methyl-4-{[3-(trifluoromethyl)pyridin-2-yl]oxy}phenyl)pyrimidine-2,4(1H,3H)-dione]", "values": [{"measurement": "XRPD result (crystalline form)", "setting": "0 M (start)", "value": "Form R1"}, {"measurement": "time stable after exposure to different relative humidity conditions at different temperatures", "value": "at least 6 months"}, {"measurement": "XRPD result (crystalline form)", "setting": "25° C./60% RH, 2 M", "value": "Form R1"}, {"measurement": "XRPD result (crystalline form)", "setting": "25° C./60% RH, 4 M", "value": "Form R1"}, {"measurement": "XRPD result (crystalline form)", "setting": "25° C./60% RH, 6 M", "value": "Form R1"}, {"measurement": "XRPD result (crystalline form)", "setting": "40° C./75% RH, 2 M", "value": "Form R1"}, {"measurement": "XRPD result (crystalline form)", "setting": "40° C./75% RH, 4 M", "value": "Form R1"}, {"measurement": "XRPD result (crystalline form)", "setting": "40° C./75% RH, 6 M", "value": "Form R1"}]}, {"smiles": "Cc1cc(Oc2ncccc2C(F)(F)F)ccc1-c1c(C)c(=O)[nH]c(=O)n1C", "note": "(single isomer, unassigned) [Tavapadon Form 1, 1,5-dimethyl-6-(2-methyl-4-{[3-(trifluoromethyl)pyridin-2-yl]oxy}phenyl)pyrimidine-2,4(1H,3H)-dione]", "values": [{"measurement": "XRPD analysis after storage", "setting": "25° C., 60% RH", "value": "No change"}, {"measurement": "XRPD analysis after storage", "setting": "40° C., 75% RH", "value": "No change"}, {"measurement": "stability to conditions of relative humidity at elevated temperatures", "value": "particularly stable"}]}, {"smiles": "Cc1cc(Oc2ncccc2C(F)(F)F)ccc1-c1c(C)c(=O)[nH]c(=O)n1C", "note": "(single isomer, unassigned) [Tavapadon Form H1, 1,5-dimethyl-6-(2-methyl-4-{[3-(trifluoromethyl)pyridin-2-yl]oxy}phenyl)pyrimidine-2,4(1H,3H)-dione]", "values": [{"measurement": "XRPD result (crystalline form)", "setting": "0 M (start)", "value": "Form H1"}, {"measurement": "XRPD analysis after storage", "setting": "25° C., 60% RH", "value": "No change"}, {"measurement": "time stable after exposure to different relative humidity conditions at different temperatures", "value": "at least 6 months"}, {"measurement": "XRPD result (crystalline form)", "setting": "25° C./60% RH, 2 M", "value": "Form H1"}, {"measurement": "XRPD result (crystalline form)", "setting": "25° C./60% RH, 4 M", "value": "Form H1"}, {"measurement": "XRPD result (crystalline form)", "setting": "25° C./60% RH, 6 M", "value": "Form H1"}, {"measurement": "XRPD result (crystalline form)", "setting": "40° C./75% RH, 2 M", "value": "Form H1"}, {"measurement": "XRPD result (crystalline form)", "setting": "40° C./75% RH, 4 M", "value": "Form H1"}, {"measurement": "XRPD result (crystalline form)", "setting": "40° C./75% RH, 6 M", "value": "Form H1"}, {"measurement": "stability to conditions of relative humidity at elevated temperatures", "value": "particularly stable"}]}]}
